The values that follow come from PubChem BioAssay (NCI).

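48-hour exposure; five concentrations; linearly interpolated endpoints. GI50 marks 50% less growth. TGI denotes the concentration required for complete inhibition of growth.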 A value given as a limit tells only on which side of the number the result lay.

Common to all, as to assay: DTP human tumour cell line panel, 48 h
In test [1] the test system is OVCAR-4 ovarian.
Test [2] concerns RXF 393 renal.
Test [3] deals with SK-MEL-5 melanoma.
Test [4] relates to SR leukemia.
For test [5], the system named is EKVX NSCLC.
For test [6], the system named is SN12C renal.
Test [7] has as its system PC-3 prostate.
For test [8], the system named is SF-539 CNS.
Test [9] concerns SW-620 colon.
Test [10] relates to KM12 colon.

In the case of `O=C(c1ccc2ncc(-c3nc(NC4CC4)ncc3F)n2c1)N1CCOCC1`, the GI50 in test [1] is 2.8 µM; in test [2], 1.07 µM; in test [3], 2.6 µM; in [4], 0.513 µM; in test [5], 2.85 µM; in test [6], 2.52 µM. Further, the GI50 in test [7] is 2.14 µM; in [8], 1.8 µM; in [9] it was 2.91 µM; in [10], 2.28 µM. The total growth inhibition concentration (TGI) came to 10.9 µM in test [1]; 3.02 µM in [2]; 8.53 µM in test [3]; 4.15 µM in test [4]; 71.7 µM in [5]; 11.8 µM in [6]. The concentration for total growth inhibition (TGI) is 8.86 µM in test [7], 4.79 µM in test [8], over 100 µM in [9] and 11.8 µM in [10].
For the compound `N#Cc1cnc2cc(OC[C@@H](O)CO)c(NC(=O)CC3CSSC3)cc2c1Nc1ccc(OCc2cccc(F)c2)c(Cl)c1`, the GI50 was 0.128 µM in [1]; 0.643 µM in [2]; 0.743 µM in [3]; 0.0408 µM in test [4]; 0.265 µM in test [5]; 0.144 µM in [6]. The GI50 in [7] is 0.0888 µM; in test [8], 0.725 µM; in [9] it was 0.216 µM; in test [10], 0.112 µM. Further, the TGI is 0.381 µM in test [1]; 1.44 µM in test [2]; 1.43 µM in test [3]; 0.275 µM in test [4]; 1.18 µM in test [5]; 0.49 µM in [6]. The concentration for total growth inhibition (TGI) was found to be 0.198 µM in test [7], 1.47 µM in test [8], 0.87 µM in [9] and 0.251 µM in test [10].
In the case of `CCN1C(=S)N(CC)C2C1NC(=S)N2/N=C/C=C/c1ccccc1` (stereo not given), the GI50 is 5.4 µM in test [1]; 1.57 µM in test [2]; 1.19 µM in [3]; 0.347 µM in test [4]; 4.19 µM in test [5]; 3.49 µM in test [6]. Besides, the GI50 in test [7] is 1.52 µM; in test [8], 1.67 µM; in test [9], 0.803 µM; in test [10], 1.21 µM. In addition, the concentration for total growth inhibition (TGI) in test [1] was determined as 19.6 µM; in test [2], 6.58 µM; in test [3] it was 10.7 µM; in test [4], 5.92 µM; in test [5] it was 34.7 µM; in test [6], 16.8 µM. The total growth inhibition concentration (TGI) in test [7] came to 16 µM; in test [8] it was 5.4 µM; in [9], 17.8 µM; in test [10], 14.7 µM.
As to `O=C(NCCCNc1cc(-c2cn(-c3ccccc3)nc2-c2cccc(O)c2)ccn1)c1ccccc1`, the GI50 in [1] is 3.56 µM; in [2] it was 1.97 µM; in test [3], 1.49 µM; in [4] it was 1.68 µM; in [5], 3.16 µM; in test [6], 6 µM. Moreover, the GI50 in [7] was 2.1 µM; in test [8], 3.02 µM; in [9], 2.36 µM; in test [10], 3.34 µM. Also, the concentration for total growth inhibition (TGI) in test [1] is 77.3 µM; in test [2] it was 6.2 µM; in [3], 3.12 µM; in test [4], 5.35 µM; in test [5] it was over 100 µM; in [6] it was over 100 µM. Also, the concentration for total growth inhibition (TGI) in test [7] was 15.2 µM; in test [8], 10.3 µM; in test [9], 6.15 µM; in test [10], 14.8 µM.
As for `CCOc1cc2c(NCCCN(CCO)CCO)ncnc2c(OCC)c1OCC`, the concentration for total growth inhibition (TGI) in test [1], in [2], in test [3], in test [4], in [5] and in test [6] was over 100 µM in each case. The TGI in test [7], in test [8], in test [9] and in test [10] was over 100 µM in each case.
Turning to `COC(=O)c1c2c(c(C)[n+]([O-])c1C)C(=O)C=C(NCc1ccc(F)c(F)c1)C2=O`, the GI50 in [1] was 0.177 µM; in test [2], 1.05 µM; in test [3] it was 0.167 µM; in test [4] it was 0.373 µM; in test [5] it was 0.685 µM; in test [6], 0.294 µM. The 50% growth inhibitory concentration (GI50) in [7] is 0.279 µM; in test [8] it was 0.487 µM; in test [9], 0.254 µM; in test [10], 0.28 µM. Moreover, the TGI in [1] is 0.666 µM; in test [2] it was 2.39 µM; in [3] it was 0.308 µM; in test [4], 4.06 µM; in test [5] it was 2.26 µM; in [6] it was 1.03 µM. Further, the total growth inhibition concentration (TGI) was 2.42 µM in [7], 1.67 µM in test [8], 1.36 µM in [9] and 1.71 µM in test [10].
As to `NNc1cccc(/C=C/c2ccccc2)cc1=O`, the GI50 in test [1] was 4.66 µM; in [2] it was 46.5 µM; in [3], 11.7 µM; in test [4], 3.85 µM; in test [5] it was 3.27 µM; in test [6], 15.2 µM. Further, the GI50 in test [7] was 7.87 µM; in [8], 23 µM; in test [9], 5.86 µM; in [10], 8.33 µM. The TGI in [1] is over 100 µM; in test [2], over 100 µM; in test [3], over 100 µM; in [4], over 100 µM; in test [5] it was 35.8 µM; in [6], over 100 µM. For the same compound, the TGI in [7], in [8], in test [9] and in test [10] was over 100 µM in each case.
Consider `CCOC(=O)C(=Cc1ccccc1[N+](=O)[O-])C(=O)OCC`, for which the GI50 in test [1] is 4.68 µM; in test [2] it was 1.33 µM; in test [3], 1.33 µM; in [4] it was 2.07 µM; in test [5], 6.61 µM; in test [6], 2.85 µM. The GI50 in test [7] was 6.69 µM; in [8] it was 3.55 µM; in [9], 2.12 µM; in [10] it was 2.72 µM. For the same compound, the TGI was 18.1 µM in test [1]; 2.78 µM in test [2]; 2.66 µM in test [3]; 30.1 µM in test [4]; 20.9 µM in [5]; 11.3 µM in test [6]. Also, the TGI in test [7] was found to be 34.7 µM; in [8] it was 9.32 µM; in [9], 4.85 µM; in test [10], 10.3 µM.
